The values that follow come from US10538482B2, “Adamantane and memantine derivatives as peripheral NMDA receptor antagonists” (Institut National de la Santé et de la Recherche Médicale …, priority 2015, dated 2020).

In one series the test system is NMDAR. The series is described as follows: NMDAR blocking activity, whole-cell voltage clamp (patch-clamp) recordings from rat hippocampal neurons. The following applies: read-out: IC50 (NMDAR antagonist activity). It counts as cell-based. For orientation: The patch-clamp technique gives a direct electrical read-out from membranes.
Series [1] in a line: In vivo brain penetration measurement in rat (plasma and brain concentration, Kp"brain"). The following applies: for Brain concentration / Plasma concentration / concentration at 3.75 h: male Sprague-Dawley rat, end of 3.75 h constant-rate i.v. infusion; for Brain concentration / Plasma concentration / concentration at 3.75 h / Kp at 3.75 h / Kp"brain" (total brain/plasma concentration ratio at steady state): 4 mg/kg; for concentration at 3.75 h / Kp at 3.75 h: male, Sprague-Dawley, iv; for Kp at 3.75 h: brain/plasma; for Kp at 3.75 h / Kp"brain" (total brain/plasma concentration ratio at steady state): 3.75 h i.v. infusion. How it is done: The femoral vein of male Sprague-Dawley rats (CRL) weighing around 250 g was surgically catheterized at least 72 hours prior to the experiment. The drug was administered as 3.75 h constant-rate intravenous infusion to approach steady state, using a flow rate of 0.8 mL/h, corresponding to dosage of 4 mg/kg (1.067 mg/kg/h, i.e. 1 mg/rat of ˜250 g). The vehicle used was saline.
At the end of the infusion, the rats were anesthetized by inhalation of isoflurane, and blood was collected in a heparinized tube from the abdominal aorta, followed by immediate rinsing of the bloodstream for 2 minutes with saline at a rate of 15 mL/min using a peristaltic pump and left intraventricle cannula (flowing via right atrium). The brain (without cerebellum) was removed, and transferred in a tube and homogenized in two volumes of deionized water using a tissue homogenizer (Precellys24). All samples were stored at −20° C. until analysis. Plasma and brain homogenate sample preparation was performed using solid phase extraction on OASIS® WCX (Waters) and compounds were quantified by reversed phase liquid chromatography and positive electrospray ionization and multiple reaction monitoring mass spectrometry (LC-MS/MS).
This parameter is defined as the ratio of concentrations in brain and blood, Kp“brain” (Cbrain/Cplasma) or log(BB). Log(BB) is the logarithm of the ratio of the steady-state total concentration of a compound in the brain to that in the blood/plasma, log(BB)=log(Cbrain/Cplasma). This parameter depends upon the passive diffusion characteristics, the implication of membrane transporters at the BBB level and the relative drug binding affinity differences between the plasma proteins and brain tissue. Generally, compounds with a brain/plasma ratio of greater than 0.3-0.5 are considered to have sufficient access to the CNS, compounds with a value greater than 1 freely cross the BBB, whereas compounds with a brain/plasma ratio smaller than 0.1 may be unable to enter the CNS.
Thus, the brain penetration of memantine and Compound N^o1 was measured in rat by establishing the brain/plasma ratio, Kp“brain” in triplicate (3 rats/Compound). The three tables below (Tables 1-3) show the results on plasma concentration, brain concentration and calculation of the Kp“brain” for the two compounds memantine and Compound N^° 1.

Where [2] appears, read: rat hippocampal neurons, -60 mV, currents evoked by 100 μM NMDA and 20 μM D-serine.
The mark [3] stands for this setting: rat, brain, mean of 3 rats, read-out: Brain concentration, Mean.
[4] abbreviates: rat, rat, mean of 3 rats, read-out: Kp"brain", Mean.
[5] abbreviates: rat, plasma, individual rats, read-out: Plasma concentration.
[6] abbreviates: rat, plasma, mean of 3 rats, read-out: Plasma concentration, Mean.

SMILES strings stand for the structures. Values joined by “and” are separate entries in the source; they are usually repeats but may differ in a detail not shown here. Equal entries are not always repeated. Where two headings read alike, the source gives them in different places.

For orientation: IC50 means the point on the concentration scale where inhibition reaches its midpoint. In the case of `CC12CC3CC(C)(C1)CC([N+](C)(C)C)(C3)C2` [Compound No1, N,N,N,3,5-Pentamethyladamantan-1-ammonium iodide], the IC50 with NMDAR (setting [2]) stood at 9.9 µM. The Brain concentration in series [1] (individual rats) was 0.90 ng/g and 3.57 ng/g and 3.03 ng/g. For the same compound, the Plasma concentration in series [1] (individual rats) is 0.02311 µg/mL and 0.02452 µg/mL. Further, the results for the concentration at 3.75 h in series [1] (setting [3]), in series [1] (setting [5]) and in series [1] (setting [6]) were 2.5 ng/g, 0.0348 µg/mL and 0.0275 µg/mL, respectively. In addition, the Kp at 3.75 h in series [1] (setting [4]) worked out at 0.091. In series [1] (rat, individual rats), the “Kp"brain" (total brain/plasma concentration ratio at steady state)” value was 0.15 and 0.09 and 0.04.

Take `CC12CC3CC(C)(C1)CC([N+](C)(C)C)(C3)C2` [Compound No1′]: the 50% inhibitory concentration (IC50) in the series with NMDAR (rat hippocampal neurons, -60 mV, currents evoked by 100 μM NMDA and 20 μM D-serine, listed as Compound N^o1′) is approximately 10 µM; with NMDAR (setting [2]), 11.6 µM.

For the compound `CC[N+](C)(C)C12CC3CC(C)(CC(C)(C3)C1)C2` [Compound No2, N-Ethyl-N,N-3,5-tetramethyladamantan-1-ammonium iodide], the IC50 with NMDAR (setting [2]) was 18 µM.

Consider `CCC[N+](C)(C)C12CC3CC(C)(CC(C)(C3)C1)C2` [Compound No3, N-Propyl-N,N-3,5-tetramethyladamantan-1-ammonium iodide], for which the IC50 in the series on NMDAR (setting [2]) was found to be 29 µM.

As to `CCCC[N+](C)(C)C12CC3CC(C)(CC(C)(C3)C1)C2` [Compound No4, N-Butyl-N,N-3,5-tetramethyladamantan-1-ammonium iodide], in the series with NMDAR (setting [2]), the IC50 worked out at 110 µM.

`CC(C)CC[N+](C)(C)C12CC3CC(C)(CC(C)(C3)C1)C2` [Compound No6, N-isoPentyl-N,N-3-5-tetramethyladamantan-1-ammonium iodide]: the IC50 in the series on NMDAR (setting [2]) came to 14.3 µM.

Consider `CC12CC3CC(C)(C1)CC([N+](C)(C)CC1CC1)(C3)C2` [Compound No8, N-(Cyclopropylmethyl)-N,N-3,5-tetramethyladamantan-1-ammonium iodide], for which the IC50 with NMDAR (setting [2]) is 3.5 µM.

As to `CC12CC3CC(C)(C1)CC([N+](C)(C)CC1CCCCC1)(C3)C2` [Compound No9, N-(Cyclohexylmethyl)-N,N-3,5-tetramethyladamantan-1-ammonium iodide], the IC50 with NMDAR (setting [2]) was 35.2 µM.

Consider `CC12CC3CC(C)(C1)CC(N)(C3)C2` [Memantine, memantine], for which the IC50 in the series on NMDAR worked out at 1 µM. The Brain concentration in series [1] (individual rats) was 2977 ng/g and 3237 ng/g. Further, in series [1] (individual rats), the Plasma concentration is 0.08869 µg/mL and 0.09485 µg/mL. Moreover, the concentration at 3.75 h in series [1] (rat, brain, individual rats, read-out: Brain concentration) amounted to 3340 ng/g; in series [1] (setting [3]) it was 3180 ng/g; in series [1] (setting [5]) it was 0.123 µg/mL; in series [1] (setting [6]), 0.102 µg/mL. Also, the Kp at 3.75 h was determined as 27.1 in series [1] (rat, rat, individual rats, read-out: Kp"brain" (total brain/plasma concentration ratio at steady state)) and 31.6 in series [1] (setting [4]). For the same compound, the “Penetration of the BBB / CNS (in words)” value in series [1] (rat) was “penetrates freely across the BBB”. For the same compound, the “Kp"brain" (total brain/plasma concentration ratio at steady state)” value in series [1] (rat, individual rats) is 33.57 and 34.13.
